This note sets out measurements from PubChem BioAssay (NCI).

Some test systems named below: UO-31 renal; MCF7 breast; SF-268 CNS; TK-10 renal; KM12 colon; PC-3 prostate; HCT-116 colon; HOP-62 NSCLC; U251 CNS; K-562 leukemia.
Common to all, as to assay: growth of human tumour cells (NCI), 48 h

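Growth conditions: 96-well plates. Treatment: test compound, 48 hours, 5 concentrations. Analysis: linear interpolation between bracketing concentrations; unreached endpoints set to highest concentration. GI50 is the concentration that inhibits growth by half. At the TGI there is no net growth.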

Turning to `O=c1nc2oc3ccc4ccccc4c3cc-2s1`, the GI50 in the assay on UO-31 renal is 33.7 µM; with MCF7 breast it was 0.485 µM; in the assay with SF-268 CNS, 7.97 µM; in the assay with TK-10 renal, greater than 25.4 µM; in the assay with KM12 colon, 0.961 µM; in the assay with PC-3 prostate, 3.16 µM. Moreover, the GI50 with HCT-116 colon is 1.14 µM; with HOP-62 NSCLC it was 4.7 µM; with U251 CNS, 4.4 µM; in the assay with K-562 leukemia, 0.526 µM. Moreover, the TGI with UO-31 renal, in the assay on MCF7 breast, in the assay with SF-268 CNS, with TK-10 renal, in the assay on KM12 colon and with PC-3 prostate was greater than 100 µM in each case. The TGI in the assay with HCT-116 colon was greater than 100 µM; in the assay with HOP-62 NSCLC it was greater than 79 µM; with U251 CNS, greater than 100 µM; in the assay with K-562 leukemia it was greater than 100 µM.

`COc1cccc(-n2ncc3c(N/N=C/c4ccncc4)ncnc32)c1`: the GI50 with UO-31 renal was 2.45 µM; in the assay with MCF7 breast it was greater than 12.2 µM; in the assay on SF-268 CNS, greater than 25 µM; in the assay on TK-10 renal it was 2.75 µM; in the assay on KM12 colon, 2.9 µM; in the assay with PC-3 prostate, greater than 17.1 µM. The GI50 in the assay on HCT-116 colon was 2.8 µM; in the assay on HOP-62 NSCLC it was greater than 25 µM; in the assay with U251 CNS, 1.1 µM; in the assay on K-562 leukemia it was 0.779 µM. Further, the TGI in the assay with UO-31 renal, in the assay on MCF7 breast, in the assay with SF-268 CNS, in the assay with TK-10 renal, with KM12 colon and with PC-3 prostate was greater than 25 µM each time. Moreover, the TGI in the assay on HCT-116 colon, in the assay with HOP-62 NSCLC, with U251 CNS and in the assay with K-562 leukemia was greater than 25 µM in each case.

As to `COc1c2c(nc3ccccc13)-c1cc3c(c(=O)n1C2)COC(=O)C3(O)CC(=O)N1CCOCC1` (stereo not given), the TGI with UO-31 renal is 68.9 µM; with MCF7 breast, greater than 44.4 µM; in the assay with SF-268 CNS, 26.7 µM; with TK-10 renal, greater than 100 µM; in the assay with KM12 colon, 57.5 µM; with PC-3 prostate it was greater than 100 µM. Besides, the TGI in the assay on HCT-116 colon is 38.5 µM; in the assay on HOP-62 NSCLC, 20.7 µM; in the assay on U251 CNS, 6.92 µM; with K-562 leukemia it was greater than 100 µM.

`O=C(NN1C(=O)CSC12CCCC2)c1[nH]c2ccc(Br)cc2c1-c1ccccc1`: the GI50 with UO-31 renal is 59.1 µM; with MCF7 breast it was 37.2 µM; with SF-268 CNS, 52.1 µM; in the assay with TK-10 renal, 80.9 µM; with KM12 colon, 28.5 µM; with PC-3 prostate, 38.6 µM. Further, the GI50 in the assay on HCT-116 colon was 26.7 µM; in the assay on HOP-62 NSCLC, 62.5 µM; with U251 CNS it was 38.2 µM; in the assay with K-562 leukemia, 18.7 µM. For the same molecule, the TGI in the assay on UO-31 renal, with MCF7 breast, in the assay on SF-268 CNS, in the assay on TK-10 renal, in the assay with KM12 colon and in the assay with PC-3 prostate was greater than 100 µM each time. Further, the TGI in the assay on HCT-116 colon is greater than 100 µM; with HOP-62 NSCLC, greater than 100 µM; with U251 CNS, greater than 100 µM; in the assay on K-562 leukemia, 43.2 µM.

`CN(C)c1ccc2c(c1)OC(N)=C(C#N)C2c1ccc2c(c1)CCO2` (stereo not given): the GI50 with UO-31 renal is 0.362 µM; in the assay on MCF7 breast it was less than 0.0211 µM; in the assay with SF-268 CNS it was 0.524 µM; with TK-10 renal, 15.9 µM; with KM12 colon, less than 0.0309 µM; in the assay with PC-3 prostate, 0.0664 µM. In addition, the results for the GI50 in the assay on HCT-116 colon, in the assay with U251 CNS and with K-562 leukemia were less than 0.0201 µM, 0.198 µM and less than 0.023 µM, respectively. For the same molecule, the TGI in the assay with UO-31 renal was 35.4 µM; in the assay on MCF7 breast, 32.3 µM; in the assay on SF-268 CNS it was 97.4 µM; with TK-10 renal, greater than 100 µM; in the assay on KM12 colon, greater than 42 µM; with PC-3 prostate it was greater than 100 µM. Also, the TGI with HCT-116 colon is 8.52 µM; in the assay with HOP-62 NSCLC it was greater than 76.7 µM; with U251 CNS, 29.8 µM; with K-562 leukemia it was greater than 100 µM.

For `CN1CC[C@@H](c2c(O)cc(O)c3c(=O)cc(-c4ccccc4Cl)oc23)[C@@H]1CO`, the GI50 with UO-31 renal was 0.268 µM; with MCF7 breast it was 0.241 µM; in the assay with SF-268 CNS it was 0.305 µM; in the assay on TK-10 renal, 0.293 µM; with KM12 colon it was 0.254 µM; with PC-3 prostate it was 0.314 µM. Further, the GI50 with HCT-116 colon was 0.2 µM; in the assay with HOP-62 NSCLC, 0.304 µM; in the assay with U251 CNS, 0.258 µM; in the assay with K-562 leukemia, 0.297 µM. Further, the TGI in the assay with UO-31 renal is greater than 2.99 µM; with MCF7 breast, greater than 10 µM; with SF-268 CNS it was 1.38 µM; with TK-10 renal it was greater than 10 µM; in the assay with KM12 colon, greater than 9 µM; with PC-3 prostate, 3.64 µM. The TGI in the assay on HCT-116 colon was greater than 10 µM; with HOP-62 NSCLC, 1.2 µM; in the assay with U251 CNS it was greater than 10 µM; in the assay with K-562 leukemia, greater than 2.58 µM.

As to `Cc1ccc(CNc2c3ccccc3nc3cc(NC(=O)CCN4CCCC4)ccc23)cc1`, the GI50 in the assay on UO-31 renal is 1.25 µM; with MCF7 breast, 0.453 µM; in the assay on SF-268 CNS, 0.819 µM; in the assay with TK-10 renal, 1.23 µM; in the assay on KM12 colon it was 0.534 µM; in the assay on PC-3 prostate, 0.515 µM. The GI50 was 0.39 µM in the assay on HCT-116 colon, 0.68 µM with HOP-62 NSCLC and 0.688 µM in the assay on U251 CNS. The TGI in the assay with UO-31 renal amounted to 2.54 µM; in the assay on MCF7 breast it was 1.77 µM; with SF-268 CNS it was 2.31 µM; in the assay with TK-10 renal, 2.85 µM; in the assay with KM12 colon, 1.79 µM; in the assay with PC-3 prostate, 1.83 µM. The TGI worked out at 1.42 µM in the assay with HCT-116 colon, 2.38 µM in the assay on HOP-62 NSCLC and 2.05 µM in the assay on U251 CNS.

Consider `C[C@]12CC[C@H]3[C@@H](CC[C@]4(O)C[C@@H](O)CC[C@]34/C=N/O)[C@@]1(O)CC[C@@H]2C1=COC(=O)C1`, for which the TGI amounted to 0.331 µM with SF-268 CNS; 0.454 µM in the assay on TK-10 renal; 2.51 µM with KM12 colon; 0.532 µM with PC-3 prostate; 0.165 µM with HCT-116 colon; 0.93 µM in the assay with K-562 leukemia.

As for `NC(=O)c1c(NC(=O)c2ccc3c(c2)OCO3)sc2c1CCC(=O)C2`, the GI50 was 1.96 µM with MCF7 breast; 1.88 µM in the assay on SF-268 CNS; 3.32 µM with TK-10 renal; 0.313 µM in the assay on PC-3 prostate; 4.11 µM with HOP-62 NSCLC; 0.467 µM with U251 CNS. For the same molecule, in the assay on K-562 leukemia, the GI50 is 0.356 µM. For the same molecule, the TGI in the assay with MCF7 breast, in the assay with SF-268 CNS, with TK-10 renal, with PC-3 prostate, with HOP-62 NSCLC and in the assay on U251 CNS was greater than 100 µM throughout. The molecule also returned a TGI in the assay with K-562 leukemia greater than 100 µM.

For the molecule `O=C(COc1ccc(/C=C2\Oc3ccccc3C2=O)cc1)Nc1nc2c(s1)CCCC2`, the GI50 with UO-31 renal is 1.87 µM; in the assay with MCF7 breast, 15.8 µM; with TK-10 renal it was 26.2 µM; in the assay on KM12 colon it was 0.403 µM; in the assay on PC-3 prostate, 16.8 µM; in the assay on HCT-116 colon it was 9.94 µM. Moreover, the results for the GI50 in the assay on HOP-62 NSCLC, in the assay on U251 CNS and in the assay on K-562 leukemia were 22.5 µM, 2.29 µM and 18.8 µM, respectively. For the same molecule, the TGI is greater than 49.5 µM with UO-31 renal; greater than 100 µM with MCF7 breast; greater than 87.6 µM with TK-10 renal; 27.5 µM with KM12 colon; greater than 100 µM with PC-3 prostate; greater than 100 µM in the assay on HCT-116 colon. The TGI in the assay on HOP-62 NSCLC is 97.9 µM; in the assay on U251 CNS, greater than 100 µM; in the assay on K-562 leukemia, greater than 100 µM.

Regarding `O=C(Nc1ccc(Cl)c(Cl)c1)O/N=C\c1c(Cl)ccc([N+](=O)[O-])c1Cl`, the GI50 was 1.45 µM in the assay on UO-31 renal; 0.404 µM in the assay with MCF7 breast; 2.81 µM in the assay with SF-268 CNS; 1.62 µM in the assay with KM12 colon; 1.58 µM with PC-3 prostate; 1.49 µM with HCT-116 colon. Also, the GI50 in the assay on HOP-62 NSCLC is 3.07 µM; in the assay with U251 CNS, 1.68 µM; with K-562 leukemia, 0.825 µM. Moreover, the TGI was found to be 2.88 µM in the assay on UO-31 renal; 2 µM in the assay on MCF7 breast; 9.63 µM in the assay on SF-268 CNS; 3.21 µM in the assay on KM12 colon; 3.74 µM in the assay with PC-3 prostate; 3.25 µM with HCT-116 colon. The TGI turned out to be 11 µM in the assay with HOP-62 NSCLC, 3.14 µM with U251 CNS and 6.56 µM in the assay with K-562 leukemia.

For the molecule `C=C1C(=O)OC2C1C(OC(=O)/C(C)=C/C)CC(O)(CCl)C1C(O)C3OC3(C)C21O` (stereo not given), the TGI was greater than 50 µM in the assay with MCF7 breast; greater than 50 µM with SF-268 CNS; greater than 50 µM with TK-10 renal; greater than 50 µM with KM12 colon; greater than 50 µM in the assay on PC-3 prostate; 23.7 µM with HCT-116 colon. In addition, the TGI in the assay with HOP-62 NSCLC, in the assay on U251 CNS and in the assay on K-562 leukemia was greater than 50 µM throughout.

Regarding `CC1=C(CO)C(=O)O[C@@H]([C@@H](C)[C@H]2CC[C@H]3[C@@H]4C[C@@H](O)[C@@]5(O)CC=CC(=O)[C@]5(C)[C@H]4CC[C@]23C)C1`, the TGI in the assay with MCF7 breast is greater than 100 µM; in the assay on SF-268 CNS it was greater than 100 µM; in the assay with TK-10 renal it was greater than 100 µM; in the assay on KM12 colon it was 58.8 µM; in the assay with PC-3 prostate it was greater than 100 µM; in the assay on HCT-116 colon it was 55.5 µM. In addition, the TGI in the assay on HOP-62 NSCLC, in the assay on U251 CNS and in the assay with K-562 leukemia was greater than 100 µM in each case.

In the case of `C=C1C(=O)OC2/C=C(/C)C(OC(C)=O)CC(O)/C(C)=C\C(OC(=O)/C(C)=C\C)C12` (stereo not given), the TGI in the assay with MCF7 breast is greater than 100 µM; in the assay on SF-268 CNS it was greater than 100 µM; in the assay with TK-10 renal, greater than 100 µM; in the assay on KM12 colon, greater than 100 µM; in the assay on PC-3 prostate it was greater than 100 µM; in the assay on HCT-116 colon it was 35.6 µM. In addition, the TGI in the assay with HOP-62 NSCLC, with U251 CNS and with K-562 leukemia was greater than 100 µM each time.
